From patent US7053234B2 (Amgen Inc., priority 2000, dated 2006)
Converted amounts (≈) assume the structure as drawn.

Tests used:
[1] = target: T1, Sigma^70 saturated E. coli RNA Polymerase (Escherichia coli, UniProt P0A8T7+P0A8V2); assay: RNA polymerase inhibition assay (E. coli enzyme); type: biochemical; conditions: Table 1; enzyme not named, method uses E. coli RNA polymerase; read-out: IC50
T1 construct: purchased Epicenter
Procedure: The compounds of the present invention can be evaluated for antibacterial activity in a variety of assay formats known to those of skill in art. The specific assays used to select the most appropriate compound for use will typically depend on the targeted bacteria or infection. One common assay involves evaluation of the compounds as RNA polymerase inhibitors. In this assay, buffer (250 mM KCl, 5% Glycerol, 10 mM MgCl2, 0.1 mg/ml BSA) is combined with 6 mM B-M.E., PT5 DNA template, and 1.3 ug/rxn Sigma^70 saturated E. coli RNA Polymerase (Epicenter). The compound is then added in a manner not to exceed 5% DMSO. Nucleotide triphosphates are then added at the following concentration: 250 uM ATP, […] and UTP with 100 uM cold CTP and 50 uM alpha ^32P CTP. The mixture is incubated for 10 min at about 37° C. A [2×] loading buffer is added and the mixture is then run on a 6% urea denaturing PAGE until bromophenol blue reaches the edge of plate. The gel is soaked (about 20 minutes in 10% MeOH and 10% acetic acid, to remove urea), then dried (about 55 minutes at about 85° C. (BioRad Gel Drier)) and exposed to a Phospho Imaging Plate for 1 hour. The plate is then read on a Fujix Bas1000 Imaging System and quantified using MacBas v2.0 software. An IC50 (in uM) can be calculated as the concentration of a drug which reduces the enzyme activity to 50% of the control.

B. su = assay: MIC determination, B. su; type: cell-based; conditions: Table 1, 16 hours at 37° C. in LB medium, read-out: B. su (bacterial MIC)
Procedure: (§1) For MIC determinations for selected bacteria, log phase growing bacteria are re-suspended at 1×10^5 bacteria per mL in LB medium. The compound is added and two-fold dilutions are made. The final volume in the 96-well plate is about 100 uL. The plate is incubated at 37° C. in the dark with shaking. After 16 hours of incubation, growth is monitored by reading A600 or by visual inspection. MIC is defined as the minimum concentration of drug resulting in inhibition of visible growth of bacterial under the conditions described (above) in National Committee for Clinical Laboratory Standards 1993. Methods for dilution antimicrobial susceptibility tests for bacteria that grow aerobically. Approved standard M7-A3; National Committee for Clinical Laboratory Standards: Villanova, Pa.

S. aureus = assay: MIC determination, S. aureus; type: cell-based; conditions: Staphylococcus aureus; Table 1; MIC, 16 hours at 37° C. in LB medium; read-out: S. au (bacterial MIC)
Procedure: The compound is added and two-fold dilutions are made. The final volume in the 96-well plate is about 100 uL. The plate is incubated at 37° C. in the dark with shaking. After 16 hours of incubation, growth is monitored by reading A600 or by visual inspection. […] Methods for dilution antimicrobial susceptibility tests for bacteria that grow aerobically. Approved standard M7-A3; National Committee for Clinical Laboratory Standards: Villanova, Pa.

E. coli (tolC) = assay: MIC determination, E. coli (tolC); type: cell-based; conditions: Escherichia coli, 16 h, read-out: E. c(tolC) (bacterial MIC)
Procedure: as §1

T1 sequence (P0A8V2 whole entry): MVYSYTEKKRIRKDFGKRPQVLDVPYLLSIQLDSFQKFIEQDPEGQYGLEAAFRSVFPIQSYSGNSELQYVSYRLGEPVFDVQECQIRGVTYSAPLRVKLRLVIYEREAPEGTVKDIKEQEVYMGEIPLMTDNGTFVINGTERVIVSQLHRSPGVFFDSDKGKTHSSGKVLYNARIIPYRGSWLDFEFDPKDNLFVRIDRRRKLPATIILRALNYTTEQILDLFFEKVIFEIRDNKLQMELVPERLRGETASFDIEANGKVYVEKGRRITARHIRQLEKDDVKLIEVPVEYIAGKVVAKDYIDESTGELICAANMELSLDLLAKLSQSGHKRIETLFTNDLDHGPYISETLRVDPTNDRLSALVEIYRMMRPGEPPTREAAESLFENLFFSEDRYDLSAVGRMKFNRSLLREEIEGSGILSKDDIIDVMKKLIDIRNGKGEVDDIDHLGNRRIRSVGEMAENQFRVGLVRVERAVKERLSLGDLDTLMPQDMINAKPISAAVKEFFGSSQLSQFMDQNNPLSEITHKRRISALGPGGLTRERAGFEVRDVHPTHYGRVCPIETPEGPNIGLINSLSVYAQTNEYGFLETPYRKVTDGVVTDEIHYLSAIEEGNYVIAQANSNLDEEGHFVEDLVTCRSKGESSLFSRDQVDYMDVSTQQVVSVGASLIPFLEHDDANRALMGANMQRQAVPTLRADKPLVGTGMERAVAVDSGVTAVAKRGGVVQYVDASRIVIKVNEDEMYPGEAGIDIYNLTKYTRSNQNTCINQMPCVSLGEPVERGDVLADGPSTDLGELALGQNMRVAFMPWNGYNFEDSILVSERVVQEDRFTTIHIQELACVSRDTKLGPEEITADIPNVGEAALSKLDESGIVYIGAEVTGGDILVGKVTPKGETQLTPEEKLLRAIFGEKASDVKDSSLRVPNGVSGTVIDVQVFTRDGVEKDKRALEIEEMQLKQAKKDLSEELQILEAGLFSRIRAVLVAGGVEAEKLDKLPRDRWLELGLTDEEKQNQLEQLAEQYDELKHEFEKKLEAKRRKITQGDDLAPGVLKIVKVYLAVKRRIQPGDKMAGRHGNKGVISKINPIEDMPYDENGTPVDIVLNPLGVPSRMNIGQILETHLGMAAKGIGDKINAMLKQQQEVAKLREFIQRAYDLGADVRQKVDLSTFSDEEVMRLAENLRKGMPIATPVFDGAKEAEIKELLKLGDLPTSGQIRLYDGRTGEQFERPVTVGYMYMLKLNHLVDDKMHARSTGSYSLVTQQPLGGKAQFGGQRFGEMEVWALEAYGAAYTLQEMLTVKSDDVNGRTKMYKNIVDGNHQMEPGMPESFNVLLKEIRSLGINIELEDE
T1 sequence (P0A8T7 whole entry): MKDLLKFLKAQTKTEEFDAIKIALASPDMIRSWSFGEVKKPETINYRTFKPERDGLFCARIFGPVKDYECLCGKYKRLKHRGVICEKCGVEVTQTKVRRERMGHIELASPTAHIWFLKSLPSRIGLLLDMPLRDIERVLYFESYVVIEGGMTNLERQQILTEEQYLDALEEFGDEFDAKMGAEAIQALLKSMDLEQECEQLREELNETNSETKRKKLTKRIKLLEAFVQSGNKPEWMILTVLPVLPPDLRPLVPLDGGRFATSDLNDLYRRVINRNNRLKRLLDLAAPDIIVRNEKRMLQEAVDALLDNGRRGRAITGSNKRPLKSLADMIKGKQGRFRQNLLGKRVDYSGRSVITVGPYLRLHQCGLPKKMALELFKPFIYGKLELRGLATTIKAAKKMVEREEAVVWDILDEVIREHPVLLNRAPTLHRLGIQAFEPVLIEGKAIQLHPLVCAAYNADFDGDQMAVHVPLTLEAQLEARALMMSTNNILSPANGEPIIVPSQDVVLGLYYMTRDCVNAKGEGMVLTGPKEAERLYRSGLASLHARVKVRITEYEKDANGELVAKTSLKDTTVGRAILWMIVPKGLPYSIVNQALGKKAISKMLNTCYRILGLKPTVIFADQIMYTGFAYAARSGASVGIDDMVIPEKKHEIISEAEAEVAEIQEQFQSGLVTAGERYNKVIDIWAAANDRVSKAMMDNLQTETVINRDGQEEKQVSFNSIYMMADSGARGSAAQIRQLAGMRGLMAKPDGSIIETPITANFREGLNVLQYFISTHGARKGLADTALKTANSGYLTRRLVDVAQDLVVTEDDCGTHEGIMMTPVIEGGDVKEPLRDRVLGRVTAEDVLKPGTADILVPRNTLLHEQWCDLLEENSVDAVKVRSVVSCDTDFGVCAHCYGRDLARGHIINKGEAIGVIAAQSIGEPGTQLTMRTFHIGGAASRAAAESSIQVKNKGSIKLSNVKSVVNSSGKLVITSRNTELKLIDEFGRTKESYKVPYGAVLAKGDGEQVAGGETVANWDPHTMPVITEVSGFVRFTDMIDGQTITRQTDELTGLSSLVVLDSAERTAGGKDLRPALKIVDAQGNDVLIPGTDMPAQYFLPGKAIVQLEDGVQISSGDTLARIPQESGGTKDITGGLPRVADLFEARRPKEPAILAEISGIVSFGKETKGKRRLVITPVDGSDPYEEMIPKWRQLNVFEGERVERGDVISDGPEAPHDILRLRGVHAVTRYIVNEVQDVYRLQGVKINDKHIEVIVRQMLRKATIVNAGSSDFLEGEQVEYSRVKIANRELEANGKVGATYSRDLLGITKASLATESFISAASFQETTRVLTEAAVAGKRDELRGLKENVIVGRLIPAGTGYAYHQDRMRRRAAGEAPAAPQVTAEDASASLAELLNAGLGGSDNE
T1 sequence (P0A7Z4 whole entry partner): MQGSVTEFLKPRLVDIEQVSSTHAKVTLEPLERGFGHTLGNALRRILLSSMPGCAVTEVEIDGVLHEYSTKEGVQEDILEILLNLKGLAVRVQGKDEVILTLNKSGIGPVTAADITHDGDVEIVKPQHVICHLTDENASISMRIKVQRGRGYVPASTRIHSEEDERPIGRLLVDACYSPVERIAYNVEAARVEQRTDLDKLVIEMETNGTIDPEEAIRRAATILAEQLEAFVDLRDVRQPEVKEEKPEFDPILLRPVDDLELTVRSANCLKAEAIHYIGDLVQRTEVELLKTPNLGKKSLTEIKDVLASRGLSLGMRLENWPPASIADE
T1 sequence (P0A800 whole entry partner): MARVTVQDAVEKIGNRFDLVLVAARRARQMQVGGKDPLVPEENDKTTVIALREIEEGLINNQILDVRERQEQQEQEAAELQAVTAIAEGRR
T1 sequence (P00579 whole entry partner): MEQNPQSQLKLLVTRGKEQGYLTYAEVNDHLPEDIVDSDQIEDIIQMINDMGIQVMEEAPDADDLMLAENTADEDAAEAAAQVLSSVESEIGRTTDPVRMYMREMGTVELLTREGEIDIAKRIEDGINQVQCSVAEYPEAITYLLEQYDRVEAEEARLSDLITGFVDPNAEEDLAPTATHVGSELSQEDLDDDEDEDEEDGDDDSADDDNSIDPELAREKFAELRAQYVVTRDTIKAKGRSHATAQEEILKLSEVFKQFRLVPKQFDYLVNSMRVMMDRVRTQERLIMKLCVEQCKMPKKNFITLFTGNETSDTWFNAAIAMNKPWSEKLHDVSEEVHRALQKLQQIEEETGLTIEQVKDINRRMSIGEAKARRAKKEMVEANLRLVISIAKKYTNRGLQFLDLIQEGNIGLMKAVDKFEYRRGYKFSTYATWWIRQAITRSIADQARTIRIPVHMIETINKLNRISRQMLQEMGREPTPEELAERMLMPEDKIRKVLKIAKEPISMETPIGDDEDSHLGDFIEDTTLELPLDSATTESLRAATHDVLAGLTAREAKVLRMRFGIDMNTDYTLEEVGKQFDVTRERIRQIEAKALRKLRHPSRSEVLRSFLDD

| Structure (SMILES) | IC50 [1] | MIC (B. su) | MIC (S. aureus) | MIC (E. coli (tolC)) |
| --- | --- | --- | --- | --- |
| N#Cc1cccc(NC(=NO)c2cccc(C(F)(F)F)c2)c1 [R′=3-CF3, R″=H, R′″=3-CN] | > 50 µM | > 125 µM | > 125 µM | 40 to 125 µM (≈ 12.2 to 38.2 µg/mL) |
| ON=C(Nc1ccccc1)c1cc(C(F)(F)F)cc(C(F)(F)F)c1 [R′=3-CF3, R″=5-CF3, R′″=H] | > 50 µM | 40 to 125 µM (≈ 13.9 to 43.5 µg/mL) | 40 to 125 µM (≈ 13.9 to 43.5 µg/mL) | < 40 µM |
| ON=C(Nc1ccccc1)c1ccc(Cl)c(C(F)(F)F)c1 [Example 65] | < 10 µM | 40 to 125 µM (≈ 12.6 to 39.3 µg/mL) | < 40 µM | < 40 µM |
| ON=C(Nc1cccc(Cl)c1)c1cccc(OC(F)(F)F)c1 [R′=3-OCF3, R″=H, R′″=3-Cl] | 10 to 50 µM | < 40 µM | 40 to 125 µM (≈ 13.2 to 41.3 µg/mL) | < 40 µM |
| ON=C(Nc1cccc(F)c1)c1cccc(C(F)(F)F)c1 [R′=3-CF3, R″=H, R′″=3-F] | 10 to 50 µM | 40 to 125 µM (≈ 11.9 to 37.3 µg/mL) | 40 to 125 µM (≈ 11.9 to 37.3 µg/mL) | < 40 µM |
